Results as given in patent US12091411B2, “IRAK degraders and uses thereof” (Kymera Therapeutics, Inc., priority 2022, dated 2024).
Like-named read-outs stand apart in the source and are kept apart here.

Target: T1, IRAK4 (Homo sapiens, UniProt Q9NWZ3)
T1 construct: Degradation of IRAK4 in OCI-LY10 was quantitatively measured using Meso Scale Discovery technology; endogenous in cells; host or cells: OCI-LY10
T1 sequence (Q9NWZ3 1-460): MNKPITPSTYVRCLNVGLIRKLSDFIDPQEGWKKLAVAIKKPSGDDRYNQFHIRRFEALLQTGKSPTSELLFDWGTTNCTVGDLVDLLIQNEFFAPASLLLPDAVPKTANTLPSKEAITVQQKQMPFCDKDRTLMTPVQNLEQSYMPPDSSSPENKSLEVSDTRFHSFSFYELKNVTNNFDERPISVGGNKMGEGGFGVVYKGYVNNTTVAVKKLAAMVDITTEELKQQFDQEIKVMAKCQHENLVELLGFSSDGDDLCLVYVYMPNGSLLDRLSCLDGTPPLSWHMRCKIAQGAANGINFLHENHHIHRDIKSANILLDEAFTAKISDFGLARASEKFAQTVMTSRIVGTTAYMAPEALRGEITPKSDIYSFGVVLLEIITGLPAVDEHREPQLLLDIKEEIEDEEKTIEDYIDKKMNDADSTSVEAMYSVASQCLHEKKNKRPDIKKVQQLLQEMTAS
Assay: IRAK4 MSD Degradation in OCI-LY10
Type: cell-based
Conditions: OCI-LY10 cells, MSD
Procedure, shortened: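 DC50, from a three-parameter logistic fit and reported as letter bins A (<0.01 μM), B, C, D (>0.2 μM or not tested), reflects IRAK4 loss measured by MSD electrochemiluminescence in OCI-LY10 lysates. Treatment: 8 doses, 1:3 steps, top 1 to 10 μM, 4 to 24 h, 37 °C.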

[1] = 4 hrs incubation, read-out: IRAK4 degradation in OCI-LY10 at 4 hrs: DC50
[2] = 24 hrs incubation, read-out: IRAK4 degradation in OCI-LY10 at 24 hrs: DC50

Compound	DC50 [1] [nM]	DC50 [2] [nM]
CC(C)Oc1ccn2ncc(C(=O)Nc3cn([C@H]4CC[C@H](CN5CCN(CC#Cc6cccc7c6n(C)c(=O)n7C6CCC(=O)NC6=O)CC5)CC4)nc3C(F)F)c2n1 (stereo partly drawn) [I-243]	> 200	> 200
Cn1c(=O)n(C2CCC(=O)NC2=O)c2cccc(C#CCN3CCN(C[C@H]4CC[C@H](n5cc(NC(=O)c6cnn7ccc(OC8CCC8)nc67)c(C(F)F)n5)CC4)CC3)c21 (stereo partly drawn) [I-244]	> 200	> 200
Cn1c(=O)n(C2CCC(=O)NC2=O)c2cccc(C#CCN3CCN(C[C@H]4CC[C@H](n5cc(NC(=O)c6cnn7ccc(OC8CCCC8)nc67)c(C(F)F)n5)CC4)CC3)c21 (stereo partly drawn) [I-245]	> 200	10 to 100
Cn1c(=O)n(C2CCC(=O)NC2=O)c2cccc(C#CCN3CCN(C[C@H]4CC[C@H](n5cc(NC(=O)c6cnn7ccc(OC8CCCCC8)nc67)c(C(F)F)n5)CC4)CC3)c21 (stereo partly drawn) [I-246]	> 200	> 200
COc1cc2nn([C@H]3CC[C@H](CN4CCC5(CC4)CCN(c4cccc6c4n(C)c(=O)n6C4CCC(=O)NC4=O)CC5)CC3)cc2cc1NC(=O)c1cc(F)cc(C#N)c1 (stereo partly drawn) [I-247]	> 200	< 10
O=C1CCC(c2cccc3c(C#CCOC4CCN(C[C@H]5CC[C@H](n6cc(NC(=O)c7cnn8ccc(N9C[C@H]%10C[C@@H]9CO%10)nc78)c(C(F)F)n6)CC5)CC4)cccc23)C(=O)N1 (stereo partly drawn) [I-248]	> 200	10 to 100
O=C1CCC(c2cncc3c(C#CCOC4CCN(C[C@H]5CC[C@H](n6cc(NC(=O)c7cnn8ccc(N9C[C@H]%10C[C@@H]9CO%10)nc78)c(C(F)F)n6)CC5)CC4)cccc23)C(=O)N1 (stereo partly drawn) [I-249]	> 200	> 200
O=C1CCC(c2cccc3c(C#CCN4CCN(C[C@H]5CC[C@@H](n6cc(NC(=O)c7cnn8ccc(N9C[C@H]%10C[C@@H]9CO%10)nc78)c(C(F)F)n6)CC5)CC4)cccc23)C(=O)N1 (stereo partly drawn) [I-250]	> 200	10 to 100
O=C1CCC(c2cncc3c(C#CCN4CCN(C[C@H]5CC[C@@H](n6cc(NC(=O)c7cnn8ccc(N9C[C@H]%10C[C@@H]9CO%10)nc78)c(C(F)F)n6)CC5)CC4)cccc23)C(=O)N1 (stereo partly drawn) [I-251]	> 200	> 200
COc1cc2nn([C@H]3CC[C@H](CN4CCC5(CC4)CCN(c4cccc6c(C7CCC(=O)NC7=O)cccc46)CC5)CC3)cc2cc1NC(=O)c1cncc(C#N)c1 (stereo partly drawn) [I-252]	> 200	10 to 100
COc1cc2nn([C@H]3CC[C@H](CN4CCC5(CC4)CCN(c4cccc6c(C7CCC(=O)NC7=O)cncc46)CC5)CC3)cc2cc1NC(=O)c1cncc(C#N)c1 (stereo partly drawn) [I-253]	> 200	> 200
COc1cc2nn([C@H]3CC[C@H](CN4CCC5(CC4)CCN(c4ccc(Cl)c(N6CCC(=O)NC6=O)c4)CC5)CC3)cc2cc1NC(=O)c1cncc(C#N)c1 [I-254]	> 200	> 200
COc1cc2nn([C@H]3CC[C@H](CN4CCC5(CC4)CCN(c4ccc(Cl)c(C6CCC(=O)NC6=O)c4)CC5)CC3)cc2cc1NC(=O)c1cncc(C#N)c1 (stereo partly drawn) [I-255]	> 200	> 200
O=C1CCN(c2cc(C#CCOC3CCN(C[C@H]4CC[C@H](n5cc(NC(=O)c6cnn7ccc(N8C[C@H]9C[C@@H]8CO9)nc67)c(C(F)F)n5)CC4)CC3)ccc2Cl)C(=O)N1 [I-256]	> 200	> 200
O=C1CCC(c2cc(C#CCOC3CCN(C[C@H]4CC[C@H](n5cc(NC(=O)c6cnn7ccc(N8C[C@H]9C[C@@H]8CO9)nc67)c(C(F)F)n5)CC4)CC3)ccc2Cl)C(=O)N1 (stereo partly drawn) [I-257]	> 200	> 200
O=C1CCN(c2cc(C#CCN3CCN(C[C@H]4CC[C@@H](n5cc(NC(=O)c6cnn7ccc(N8C[C@H]9C[C@@H]8CO9)nc67)c(C(F)F)n5)CC4)CC3)ccc2Cl)C(=O)N1 [I-258]	> 200	> 200
O=C1CCC(c2cc(C#CCN3CCN(C[C@H]4CC[C@@H](n5cc(NC(=O)c6cnn7ccc(N8C[C@H]9C[C@@H]8CO9)nc67)c(C(F)F)n5)CC4)CC3)ccc2Cl)C(=O)N1 (stereo partly drawn) [I-259]	> 200	> 200
Cn1c(=O)n(C2CCC(=O)NC2=O)c2cccc(C#CCOC3CCN(C[C@H]4CC[C@H](n5cc(NC(=O)c6cccc(C#N)n6)c(C(F)F)n5)CC4)CC3)c21 (stereo partly drawn) [I-260]	> 200	> 200
Cn1c(=O)n(C2CCC(=O)NC2=O)c2cccc(C#CCN3CCN(C[C@H]4CC[C@H](n5cc(NC(=O)c6cccc(C#N)n6)c(C(F)F)n5)CC4)CC3)c21 (stereo partly drawn) [I-261]	> 200	> 200
Cn1c(=O)n(C2CCC(=O)NC2=O)c2cccc(C#CCOC3CCN(C[C@H]4CC[C@H](n5cc(NC(=O)c6cccc(C#N)n6)c(C(C)(C)O)n5)CC4)CC3)c21 (stereo partly drawn) [I-262]	> 200	> 200
Cn1c(=O)n(C2CCC(=O)NC2=O)c2cccc(C#CCN3CCN(C[C@H]4CC[C@H](n5cc(NC(=O)c6cccc(C#N)n6)c(C(C)(C)O)n5)CC4)CC3)c21 (stereo partly drawn) [I-263]	> 200	> 200
Cn1c(=O)n(C2CCC(=O)NC2=O)c2cccc(C#CCOC3CCN(C[C@H]4CC[C@H](n5cc(NC(=O)c6cncc(C#N)c6)c(C(F)F)n5)CC4)CC3)c21 (stereo partly drawn) [I-264]	> 200	> 200
Cn1c(=O)n(C2CCC(=O)NC2=O)c2cccc(C#CCN3CCN(C[C@H]4CC[C@H](n5cc(NC(=O)c6cncc(C#N)c6)c(C(F)F)n5)CC4)CC3)c21 (stereo partly drawn) [I-265]	> 200	> 200
Cn1c(=O)n(C2CCC(=O)NC2=O)c2cccc(C#CCOC3CCN(C[C@H]4CC[C@H](n5cc(NC(=O)c6cncc(C#N)c6)c(C(C)(C)O)n5)CC4)CC3)c21 (stereo partly drawn) [I-266]	> 200	> 200
Cn1c(=O)n(C2CCC(=O)NC2=O)c2cccc(C#CCN3CCN(C[C@H]4CC[C@H](n5cc(NC(=O)c6cncc(C#N)c6)c(C(C)(C)O)n5)CC4)CC3)c21 (stereo partly drawn) [I-267]	> 200	> 200
Cc1ccc(-c2nn([C@H]3CC[C@H](CN4CCC(OCC#Cc5cccc6c5n(C)c(=O)n6C5CCC(=O)NC5=O)CC4)CC3)cc2NC(=O)c2cncc(C#N)c2)nc1 (stereo partly drawn) [I-268]	> 200	> 200

More lines, now with the values ahead:

DC50 [1] [nM]	DC50 [2] [nM]	Compound
> 200	10 to 100	Cn1c(=O)n(C2CCC(=O)NC2=O)c2cccc(C#CCN3CCN(C[C@H]4CC[C@H](n5cc(NC(=O)c6cnn7ccc(N8CCCCC8(C)C)nc67)c(C(F)F)n5)CC4)CC3)c21 (stereo partly drawn) [I-230]
> 200	> 200	Cn1c(=O)n(C2CCC(=O)NC2=O)c2cccc(C#CCOC3CCN(C[C@H]4CC[C@H](n5cc(NC(=O)c6ccn7ccc(N8C[C@H]9C[C@@H]8CO9)nc67)c(C(F)F)n5)CC4)CC3)c21 (stereo partly drawn) [I-231]
> 200	> 200	Cn1c(=O)n(C2CCC(=O)NC2=O)c2cccc(C#CCOC3CCN(C[C@H]4CC[C@H](n5cc(NC(=O)c6ccn7ccc(N8C[C@@H]9C[C@H]8CO9)nc67)c(C(F)F)n5)CC4)CC3)c21 (stereo partly drawn) [I-232]
> 200	> 200	Cn1c(=O)n(C2CCC(=O)NC2=O)c2cccc(C#CCN3CCN(C[C@H]4CC[C@H](n5cc(NC(=O)c6cnn7cc(N8CCCCC8)cnc67)c(C(F)F)n5)CC4)CC3)c21 (stereo partly drawn) [I-233]
> 200	100 to 200	CN(C)c1cnc2c(C(=O)Nc3cn([C@H]4CC[C@H](CN5CCN(CC#Cc6cccc7c6n(C)c(=O)n7C6CCC(=O)NC6=O)CC5)CC4)nc3C(F)F)cnn2c1 (stereo partly drawn) [I-234]
> 200	10 to 100	Cn1c(=O)n(C2CCC(=O)NC2=O)c2cccc(C#CCN3CCN(C[C@H]4CC[C@H](n5cc(NC(=O)c6cnn7cccnc67)c(C(F)F)n5)CC4)CC3)c21 (stereo partly drawn) [I-235]
> 200	< 10	Cn1c(=O)n(C2CCC(=O)NC2=O)c2cccc(N3CCC4(CCN(C[C@H]5CC[C@H](n6cc(NC(=O)c7cnn8cccnc78)c(C(F)F)n6)CC5)CC4)CC3)c21 (stereo partly drawn) [I-236]
> 200	10 to 100	Cn1c(=O)n(C2CCC(=O)NC2=O)c2cccc(N3CCN(CC[C@H]4CC[C@H](n5cc(NC(=O)c6cnn7cccnc67)c(C(F)F)n5)CC4)CC3)c21 (stereo partly drawn) [I-237]
> 200	> 200	Cn1c(=O)n(C2CCC(=O)NC2=O)c2cccc(CN3CCN(C[C@H]4CC[C@H](n5cc(NC(=O)c6cnn7cccnc67)c(C(F)F)n5)CC4)CC3)c21 (stereo partly drawn) [I-238]
> 200	> 200	Cn1c(=O)n(C2CCC(=O)NC2=O)c2cccc(N3CCC(CO[C@H]4CC[C@H](n5cc(NC(=O)c6cnn7cccnc67)c(C(F)F)n5)CC4)CC3)c21 (stereo partly drawn) [I-239]
> 200	> 200	Cn1c(=O)n(C2CCC(=O)NC2=O)c2cccc(N3CCC(OC[C@H]4CC[C@H](n5cc(NC(=O)c6cnn7cccnc67)c(C(F)F)n5)CC4)CC3)c21 (stereo partly drawn) [I-240]
> 200	100 to 200	C[C@@H]([C@H]1CC[C@H](n2cc(NC(=O)c3cnn4cccnc34)c(C(F)F)n2)CC1)N(C)C1CCN(c2cccc3c2n(C)c(=O)n3C2CCC(=O)NC2=O)CC1 (stereo partly drawn) [I-241]
> 200	> 200	CN(C1CCN(c2cccc3c2n(C)c(=O)n3C2CCC(=O)NC2=O)CC1)[C@@H](C#N)[C@H]1CC[C@H](n2cc(NC(=O)c3cnn4cccnc34)c(C(F)F)n2)CC1 (stereo partly drawn) [I-242]
